Measurements: US20070254314A1, “Methods of treating autism and autism spectrum disorders” (priority 2004, published 2007)
Like-named read-outs stand apart in the source and are kept apart here.

Legend:
[1] = Description: (§1) The toxic metals were reported as μg/g creatinine in order to account for urine dilution variations.
as §1, §1, §1

[2] = system: subject suffering from autism or an autism spectrum disorder; test: Clinical observation of symptoms (physician, parents, educators); assay type: in vivo, human
[3] = following three days of oral chelation with DMSA; cited from earlier work
[4] = system: rats of the JCL-SD strain; conditions: 0.3 to 2 mg/kg intravenously; male more susceptible; cited from earlier work
[5] = system: neuronal damage in tissue culture; conditions: cited from earlier work
[6] = cited from earlier work
susceptible mouse strain = conditions: weight- and age-adjusted 1990s US immunization schedule; cited from earlier work
chick embryo = conditions: single 50 μg of mercury dose; cited from earlier work
neurons = conditions: nanomolar (nM) to micromolar (μM) concentrations, within hours of exposure; cited from earlier work
[7] = Child X (autistic person), urine collected Nov. 5, 2000, during DMSA treatment, creatinine 43.4 mg/dL
[8] = Child X, urine collected Sep. 30, 2001, during DMSA treatment, creatinine 54 mg/dL
[9] = Child Y (autistic person), urine collected Jun. 29, 2002, during DMSA treatment, creatinine 6.9 mg/dL
[10] = Child Y, urine collected Dec. 24, 2002, during DMSA treatment, creatinine 8.6 mg/dL

Row | Molecule | Toxic metals in urine, Results [1, 7] | Toxic metals in urine, Results [1, 8] | Toxic metals in urine, Results [1, 9] | Toxic metals in urine, Results [1, 10] | other results
1 | O=C(O)[C@@H](S)[C@@H](S)C(=O)O [DMSA, meso-2,3-dimercaptosuccinic acid] |  |  |  |  | Mercury in urine on DMSA treatment ([1]; Child X, DMSA Oct. 21, 2000 through Feb. 3, 2002): spilled toxic levels of mercury in their urine; Mercury in urine on DMSA treatment ([1]; Child Y, DMSA Jun. 26, 2002 to May 2, 2003): spilled toxic levels of mercury in their urine; Clinical improvement as a result of DMSA treatment ([2]; Child X): some improvement; Improvement in autism on DMSA treatment ([2]; Child Y): did not show significant improvement; Urinary mercury concentration, autistic children versus matched normal controls [3]: approximately 6 fold
2 | [Cl][Hg][Cl] [mercuric chloride] |  |  |  |  | Renal toxicity [4]: acute renal tubular necrosis was produced
3 | C[C@]12CC[C@H]3[C@@H](CCC4=CC(=O)CC[C@@]43C)[C@@H]1CC[C@@H]2O [testosterone] |  |  |  |  | Effect of concurrent exposure on mercury induced neuronal damage [5]: exacerbated
4 | C[CH2][Hg][S]c1ccccc1C(=O)[O-].[Na+] [thimerosal] |  |  |  |  | Passage of the blood-brain barrier ([6]; infant monkeys, doses comparable to the US dosing schedule): crosses the blood-brain barrier; Half-life of inorganic mercury in the brain ([6]; infant monkeys): > 120 days; Maximum mercury concentration observed in the brain ([6]; infant monkeys): approximately 50 parts-per-billion; Overall half-life of mercury in the brain ([6]; infant monkeys): approximately 24 days; Inorganic mercury in the brains ([6]; thimerosal-treated infant monkeys, average following the dosing schedule): 16 parts-per-billion; Neurotoxic effects (susceptible mouse strain): autistic symptoms in a susceptible mouse strain; Fetal lethality and teratogenicity compared to controls (chick embryo): significant fetal lethality and teratogenecity; Effects on neurons (neurons): inducing neuronal death, neurodegeneration, membrane damage, and DNA damage
5 | Aluminum | 26 μg/g creatinine | 14 μg/g creatinine | <dl* | <dl* | 
6 | Antimony | 0.4 μg/g creatinine | <dl* | <dl | <dl | 
7 | Arsenic | 98 μg/g creatinine | 37 μg/g creatinine | 31 μg/g creatinine | 23 μg/g creatinine | 
8 | Beryllium | <dl* | <dl | <dl | <dl | 
9 | Bismuth | 0.8 μg/g creatinine | <dl | <dl | <dl | 
10 | Cadmium | 1.4 μg/g creatinine | 0.5 μg/g creatinine | <dl | 1.6 μg/g creatinine | 
11 | Lead | 12 μg/g creatinine | 8.6 μg/g creatinine | <dl | <dl | 
12 | Platinum | 0.2 μg/g creatinine | <dl | <dl | <dl | 
13 | Thallium | 0.2 μg/g creatinine | 0.2 μg/g creatinine | 0.9 μg/g creatinine | 0.6 μg/g creatinine | 
14 | Tungsten | <dl | 0.3 μg/g creatinine | <dl | 1.6 μg/g creatinine | 
15 | estrogen |  |  |  |  | Effect of concurrent exposure on mercury induced neuronal damage [5]: ameliorated
